From patent US6737383B1, “Herbicidal oxadiazolidines” (priority 1999, dated 2004)

Experiments:
bedstraw = assay: Test B pre/postemergence bedstraw; type: in vivo, Galium aparine
Procedure, shortened: (§1)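 Response is a visual 0-to-10 score relative to untreated plants, where 0 means no effect and 10 means complete control, taken twelve to sixteen days after application. Treatments went onto soil at planting and onto foliage of 1- to 4-leaf plants, using a surfactant-containing non-phytotoxic solvent.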

smallflower flatsedge = assay: Test B flood test smallflower flatsedge; type: in vivo, Cyperus difformis
Procedure, shortened: (§2)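 Flood test on plants grown to the 2-leaf stage; treated plants kept in greenhouse twelve to sixteen days, then visually rated against controls on a 0 (no effect) to 10 (complete control) scale.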

velvetleaf = assay: Test B pre/postemergence velvetleaf; type: in vivo, Abutilon theophrasti
Procedure, shortened: as §1

purple nutsedge = assay: Test B pre/postemergence purple nutsedge; type: in vivo, Cyperus rotundus
Procedure, shortened: as §1

sugar beet = assay: Test B pre/postemergence sugar beet; type: in vivo, Beta vulgaris
Procedure, shortened: as §1

cocklebur = assay: Test B pre/postemergence cocklebur; type: in vivo, Xanthium strumarium
Procedure, shortened: as §1

morningglory = assay: Test B pre/postemergence morningglory; type: in vivo, Ipomoea hederacea
Procedure, shortened: as §1

crabgrass = assay: Test B pre/postemergence crabgrass; type: in vivo, Digitaria sanguinalis
Procedure, shortened: as §1

duck salad = assay: Test B flood test duck salad; type: in vivo, Heteranthera limosa
Procedure, shortened: as §2

wild oat = assay: Test B pre/postemergence wild oat; type: in vivo, Avena fatua
Procedure, shortened: as §1

surinam grass = assay: Test B pre/postemergence surinam grass; type: in vivo, Brachiaria decumbens
Procedure, shortened: as §1

blackgrass = assay: Test B pre/postemergence blackgrass; type: in vivo, Alopecurus myosuroides
Procedure, shortened: as §1

pigweed = assay: Test B pre/postemergence pigweed; type: in vivo, Amaranthus retroflexus
Procedure, shortened: as §1

wheat = assay: Test B pre/postemergence wheat; type: in vivo, Triticum aestivum
Procedure, shortened: as §1

corn = assay: Test B pre/postemergence corn; type: in vivo, Zea mays
Procedure, shortened: as §1

rape = assay: Test B pre/postemergence rape; type: in vivo, Brassica napus
Procedure, shortened: as §1

[1] = Postemergence, Rate 62 g/ha, scale 0 to 10, 0 is no effect, 10 is complete control
[2] = Postemergence, Rate 125 g/ha, scale of 0 to 10 where 0 is no effect and 10 is complete control
[3] = Postemergence, Rate 250 g/ha, scale of 0 to 10, 0 is no effect, 10 is complete control
[4] = Preemergence, Rate 62 g/ha, scale of 0 to 10 where 0 is no effect and 10 is complete control
[5] = Preemergence, Rate 125 g/ha, scale of 0 to 10 where 0 is no effect and 10 is complete control
[6] = Preemergence, Rate 250 g/ha, scale 0 to 10 (0 no effect, 10 complete control)
[7] = Preemergence, Rate 500 g/ha, scale of 0 to 10 where 0 is no effect and 10 is complete control
[8] = Rate 62 g/ha, flood test species, Pre-emergence, visual evaluation after twelve to sixteen days
[9] = Rate 125 g/ha, under heading Pre-emergence, flood test species, visual evaluation after twelve to sixteen days
[10] = Rate 250 g/ha, Pre-emergence (flood test species), scale 0 to 10, 0 is no effect, 10 is complete control
[11] = Rate 500 g/ha, Pre-emergence section of Table B, 0 to 10 scale (0 no effect, 10 complete control)
[12] = Rate 500 g/ha, Postemergence, scale 0 to 10, 0 is no effect, 10 is complete control

Compound: CC(C)N(C(=O)n1oc(=O)n(CCCC#N)c1=O)c1ccc(F)cc1F [Compound 675]
- Plant response rating, Bedstraw (bedstraw; [1]): 0
- Bedstraw plant response rating (bedstraw; [2]): 1
- Bedstraw plant response rating (bedstraw; [3]): 6
- Bedstraw plant response rating (bedstraw; [4]): 0
- Plant response rating, Bedstraw (bedstraw; [5]): 2
- Plant response rating, Bedstraw (bedstraw; [6]): 10
- Plant response rating, Bedstraw (bedstraw; [7]): 10
- Plant response rating, S. Flatsedge (0 to 10 scale, 0 is no effect, 10 is complete control) (smallflower flatsedge; [8]): 0
- S. Flatsedge plant response rating (0 to 10 scale, 0 is no effect, 10 is complete control) (smallflower flatsedge; [9]): 0
- S. Flatsedge plant response rating (smallflower flatsedge; [10]): 0
- S. Flatsedge plant response rating (smallflower flatsedge; [11]): 0
- Plant response rating, Velvetleaf (velvetleaf; [1]): 0
- Velvetleaf plant response rating (velvetleaf; [2]): 2
- Velvetleaf plant response rating (velvetleaf; [4]): 6
- Plant response rating, Velvetleaf (velvetleaf; [5]): 7
- Plant response rating, Velvetleaf (velvetleaf; [7]): 10
- Velvetleaf plant response rating (velvetleaf; [12]): 8
- Plant response rating, Nutsedge (purple nutsedge; [1]): 0
- Nutsedge plant response rating (purple nutsedge; [2]): 0
- Nutsedge plant response rating (purple nutsedge; [4]): 0
- Plant response rating, Nutsedge (purple nutsedge; [5]): 0
- Plant response rating, Nutsedge (purple nutsedge; [7]): 7
- Nutsedge plant response rating (purple nutsedge; [12]): 8
- Plant response rating, Sugarbeets (sugar beet; [1]): 0
- Sugarbeets plant response rating (sugar beet; [2]): 2
- Sugarbeets plant response rating (sugar beet; [4]): 5
- Plant response rating, Sugarbeets (sugar beet; [5]): 7
- Plant response rating, Sugarbeets (sugar beet; [7]): 10
- Sugarbeets plant response rating (sugar beet; [12]): 4
- Plant response rating, Cocklebur (cocklebur; [1]): 0
- Cocklebur plant response rating (cocklebur; [2]): 3
- Cocklebur plant response rating (cocklebur; [3]): 3
- Cocklebur plant response rating (cocklebur; [4]): 0
- Plant response rating, Cocklebur (cocklebur; [5]): 0
- Plant response rating, Cocklebur (cocklebur; [6]): 0
- Plant response rating, Cocklebur (cocklebur; [7]): 0
- Cocklebur plant response rating (cocklebur; [12]): 3
- Plant response rating, Morningglory (morningglory; [1]): 1
- Morningglory plant response rating (morningglory; [2]): 2
- Morningglory plant response rating (morningglory; [3]): 2
- Morningglory plant response rating (morningglory; [4]): 0
- Plant response rating, Morningglory (morningglory; [5]): 0
- Plant response rating, Morningglory (morningglory; [7]): 6
- Morningglory plant response rating (morningglory; [12]): 4
- Plant response rating, Crabgrass (crabgrass; [1]): 6
- Crabgrass plant response rating (crabgrass; [2]): 8
- Crabgrass plant response rating (crabgrass; [3]): 9
- Crabgrass plant response rating (crabgrass; [4]): 6
- Plant response rating, Crabgrass (crabgrass; [5]): 7
- Plant response rating, Crabgrass (crabgrass; [6]): 9
- Plant response rating, Crabgrass (crabgrass; [7]): 10
- Crabgrass plant response rating (crabgrass; [12]): 9
- Plant response rating, Ducksalad (0 to 10 scale, 0 is no effect, 10 is complete control) (duck salad; [8]): 0
- Ducksalad plant response rating (0 to 10 scale, 0 is no effect, 10 is complete control) (duck salad; [9]): 0
- Ducksalad plant response rating (duck salad; [10]): 0
- Ducksalad plant response rating (duck salad; [11]): 0
- Plant response rating, Wild oats (wild oat; [1]): 0
- Wild oats plant response rating (wild oat; [2]): 0
- Wild oats plant response rating (wild oat; [4]): 4
- Plant response rating, Wild oats (wild oat; [5]): 5
- Plant response rating, Wild oats (wild oat; [7]): 10
- Wild oats plant response rating (wild oat; [12]): 7
- Plant response rating, B. signalgrass (surinam grass; [1]): 1
- B. signalgrass plant response rating (surinam grass; [2]): 4
- B. signalgrass plant response rating (surinam grass; [3]): 8
- B. signalgrass plant response rating (surinam grass; [4]): 4
- Plant response rating, B. signalgrass (surinam grass; [5]): 6
- Plant response rating, B. signalgrass (surinam grass; [6]): 8
- Plant response rating, B. signalgrass (surinam grass; [7]): 10
- B. signalgrass plant response rating (surinam grass; [12]): 8
- Plant response rating, Blackgrass (blackgrass; [1]): 5
- Blackgrass plant response rating (blackgrass; [2]): 5
- Blackgrass plant response rating (blackgrass; [3]): 7
- Blackgrass plant response rating (blackgrass; [4]): 5
- Plant response rating, Blackgrass (blackgrass; [5]): 9
- Plant response rating, Blackgrass (blackgrass; [6]): 9
- Plant response rating, Blackgrass (blackgrass; [7]): 10
- Blackgrass plant response rating (blackgrass; [12]): 9
- Plant response rating, Redroot pigweed (pigweed; [1]): 2
- Redroot pigweed plant response rating (pigweed; [2]): 2
- Redroot pigweed plant response rating (pigweed; [4]): 5
- Plant response rating, Redroot pigweed (pigweed; [5]): 9
- Plant response rating, Redroot pigweed (pigweed; [7]): 10
- Redroot pigweed plant response rating (pigweed; [12]): 8
- Plant response rating, Wheat (wheat; [1]): 0
- Wheat plant response rating (wheat; [2]): 3
- Wheat plant response rating (wheat; [4]): 0
- Plant response rating, Wheat (wheat; [5]): 2
- Plant response rating, Wheat (wheat; [7]): 9
- Wheat plant response rating (wheat; [12]): 7
- Plant response rating, Corn (corn; [1]): 0
- Corn plant response rating (corn; [2]): 0
- Corn plant response rating (corn; [3]): 0
- Corn plant response rating (corn; [4]): 0
- Plant response rating, Corn (corn; [5]): 3
- Plant response rating, Corn (corn; [6]): 6
- Plant response rating, Corn (corn; [7]): 9
- Corn plant response rating (corn; [12]): 6
- Plant response rating, Rape (rape; [1]): 0
- Rape plant response rating (rape; [2]): 0
- Rape plant response rating (rape; [4]): 2
- Plant response rating, Rape (rape; [5]): 3
- Plant response rating, Rape (rape; [7]): 10
- Rape plant response rating (rape; [12]): 3
